From ChEMBL document CHEMBL4706476, “Novel Tetrahydropyrido[4,3-d]pyrimidines as Potent Inhibitors of Chaperone Heat Shock Protein 90” (J Med Chem, 2016)
Converted amounts (≈) assume the structure as drawn.

Columns and labels:
[1] = target: Heat shock protein HSP 90-alpha (Homo sapiens, UniProt P07900); assay: Displacement of FITC-geldanamycin from N-terminal HSP90alpha (unknown origin) after 30 mins by fluorescence polarization competitive binding assay
[2] = Permeability of the compound at pH 7.4 by PAMPA; type: ADME; conditions: read-out: permeability
[3] = target: Endoplasmin (Homo sapiens, UniProt P14625); assay: Displacement of FITC-geldanamycin from N-terminal GRP94 (unknown origin) after 30 mins by fluorescence polarization competitive binding assay
Sequence of Endoplasmin (P14625 whole entry): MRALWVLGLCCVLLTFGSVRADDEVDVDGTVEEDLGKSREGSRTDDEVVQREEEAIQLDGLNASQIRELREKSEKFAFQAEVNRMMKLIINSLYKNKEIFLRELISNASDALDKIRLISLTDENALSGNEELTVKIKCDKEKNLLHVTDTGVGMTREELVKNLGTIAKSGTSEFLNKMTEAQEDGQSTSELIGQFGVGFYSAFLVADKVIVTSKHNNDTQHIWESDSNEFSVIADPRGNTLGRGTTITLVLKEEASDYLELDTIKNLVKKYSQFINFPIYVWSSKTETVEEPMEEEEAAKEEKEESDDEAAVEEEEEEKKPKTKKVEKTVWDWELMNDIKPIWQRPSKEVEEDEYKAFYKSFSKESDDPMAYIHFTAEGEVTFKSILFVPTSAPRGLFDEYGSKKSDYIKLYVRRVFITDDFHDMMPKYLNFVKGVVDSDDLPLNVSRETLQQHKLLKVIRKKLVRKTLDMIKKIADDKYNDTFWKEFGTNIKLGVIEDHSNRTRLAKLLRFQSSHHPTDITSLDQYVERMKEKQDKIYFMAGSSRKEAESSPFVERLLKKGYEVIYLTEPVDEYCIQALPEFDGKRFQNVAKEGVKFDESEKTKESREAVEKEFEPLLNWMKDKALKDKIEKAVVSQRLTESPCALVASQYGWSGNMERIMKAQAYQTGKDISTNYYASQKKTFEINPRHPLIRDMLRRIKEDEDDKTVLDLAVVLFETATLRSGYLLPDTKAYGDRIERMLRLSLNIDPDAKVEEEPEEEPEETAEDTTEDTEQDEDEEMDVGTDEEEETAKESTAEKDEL

[4] = Selectivity ratio of IC50 for inhibition of FITC-geldanamycin binding to N-terminal GRP94 (unknown origin) to IC50 for inhibition of FITC-geldanamycin binding to N-terminal HSP90alpha (unknown origin)
[5] = test system: MDA-MB-231; assay: Antiproliferative activity against human MDA-MB-231 assessed as reduction in cell viability incubated for 72 hrs by MTT assay; type: functional, cell-based; conditions: MDA-MB-231, 72 h
[6] = test system: MDA-MB-468; assay: Antiproliferative activity against human MDA-MB-468 assessed as reduction in cell viability incubated for 72 hrs by MTT assay; type: functional, cell-based; conditions: MDA-MB-468, 72 h
[7] = test system: SK-BR-3; assay: Antiproliferative activity against human SK-BR-3 assessed as reduction in cell viability incubated for 72 hrs by MTT assay; type: functional, cell-based; conditions: SK-BR-3, 72 h
[8] = test system: T47D; assay: Antiproliferative activity against human T47D assessed as reduction in cell viability incubated for 72 hrs by MTT assay; type: functional, cell-based
[9] = test system: BT-474; assay: Antiproliferative activity against human BT-474 assessed as reduction in cell viability incubated for 72 hrs by MTT assay; type: functional, cell-based; conditions: BT-474, 72 h
[10] = test system: U2OS; assay: Antiproliferative activity against human U2OS assessed as reduction in cell viability incubated for 72 hrs by MTT assay; type: functional, cell-based
[11] = test system: MKN-28; assay: Antiproliferative activity against human MKN-28 assessed as reduction in cell viability incubated for 72 hrs by MTT assay; type: functional, cell-based; conditions: MKN-28, 72 h
[12] = test system: A549; assay: Antiproliferative activity against human A549 assessed as reduction in cell viability incubated for 72 hrs by MTT assay; type: functional, cell-based; conditions: A549, 72 h
[13] = test system: HepG2; assay: Antiproliferative activity against human HepG2 assessed as reduction in cell viability incubated for 72 hrs by MTT assay; type: functional, cell-based; conditions: HepG2, 72 h
[14] = test system: K562; assay: Antiproliferative activity against human K562 assessed as reduction in cell viability incubated for 72 hrs by MTT assay; type: functional, cell-based; conditions: K562, 72 h
[15] = test system: MV4-11; assay: Antiproliferative activity against human MV4-11 assessed as reduction in cell viability incubated for 72 hrs by MTT assay; type: functional, cell-based; conditions: MV4-11, 72 h
[16] = test system: L02; assay: Cytotoxicity against human L02 cells assessed as reduction in cell viability incubated for 72 hrs by MTT assay; type: cell-based; conditions: L02, 72 h
[17] = test system: HCT-116; assay: Antitumor activity against human HCT-116 cells xenografted in nude mouse assessed as reduction in relative tumor volume by measuring T/C ratio at 60 mg/kg, ip administered every other day for 16 days and monitored every 3 days; type: functional; conditions: time 16 day
[18] = test system: HCT-116; assay: cells; conditions: Homo sapiens, HCT-116, 72 h
Description: Antiproliferative activity against human HCT-116 cells assessed as reduction in cell viability incubated for 72 hrs by MTT assay

[19] = test system: MCF7; assay: cells; conditions: Homo sapiens, MCF7, 72 h
[20] = Distribution coefficient, logD of compound at pH 7.4; type: physicochemical; conditions: octanol/water
[21] = Intrinsic aqueous solubility of the compound; type: physicochemical
[22] = target: T1, Heat shock protein HSP90 (Homo sapiens) (UniProt P07900+P08238); assay: Inhibition of HSP90 in human HCT-116 cells assessed as reduction in AKT protein expression after 24 hrs by Western blot analysis; type: cell-based; conditions: dose 0.01-3 µM
[23] = target: T1, Heat shock protein HSP90 (Homo sapiens); assay: Inhibition of HSP90 in human HCT-116 cells assessed as reduction in Erk protein expression after 24 hrs by Western blot analysis; type: cell-based; conditions: dose 0.01-3 µM
[24] = target: T1, Heat shock protein HSP90 (Homo sapiens); assay: Inhibition of HSP90 in human HCT-116 cells assessed as reduction in phosphorylated Erk after 24 hrs by Western blot analysis; type: cell-based; conditions: dose 0.01-3 µM
[25] = target: T1, Heat shock protein HSP90 (Homo sapiens); assay: Inhibition of HSP90 in human HCT-116 cells assessed as induction of HSP70 expression after 24 hrs by Western blot analysis; type: cell-based; conditions: dose 0.01-3 µM
[26] = Tmax in rat at 50 mg/kg, po measured upto 24 hrs by LC-MS/MS analysis; type: ADME, organism-based; conditions: in vivo
[27] = Cmax in rat at 50 mg/kg, po measured upto 24 hrs by LC-MS/MS analysis; type: ADME, organism-based; design: route oral, dose 50 mg/kg, time <=24; conditions: in vivo
[28] = Half life in human liver microsomes at 1 uM preincubated for 5 mins followed by NADPH addition and measured up to 120 mins by LC-MS/MS analysis; type: ADME, Microsome; conditions: 2 h, time <=125 min
[29] = Intrinsic clearance in human liver microsomes at 1 uM preincubated for 5 mins followed by NADPH addition and measured up to 120 mins by LC-MS/MS analysis; type: ADME, Microsome; conditions: 2 h, time <=125 min
[30] = Metabolic stability in human liver microsomes assessed as parent compound remaining at 1 uM preincubated for 5 mins followed by NADPH addition and measured up to 120 mins by LC-MS/MS analysis; type: ADME, Microsome; conditions: 2 h, time <=125 min
[31] = Half-life in rat at 50 mg/kg, po measured upto 24 hrs by LC-MS/MS analysis; type: ADME, organism-based; conditions: in vivo
[32] = Half-life in rat at 10 mg/kg, iv measured upto 24 hrs by LC-MS/MS analysis; type: ADME, organism-based; conditions: in vivo
[33] = Apparent clearance during terminal phase in rat at 50 mg/kg, po measured upto 24 hrs by LC-MS/MS analysis; type: ADME, organism-based; conditions: in vivo, read-out: CLz/F (converted)
[34] = Apparent clearance during terminal phase in rat at 10 mg/kg, iv measured upto 24 hrs by LC-MS/MS analysis; type: ADME, organism-based; conditions: in vivo
[35] = AUC (0 to t) in rat at 50 mg/kg, po measured upto 24 hrs by LC-MS/MS analysis; type: ADME, organism-based; design: route oral, dose 50 mg/kg, time <=24; conditions: in vivo
[36] = AUC (0 to t) in rat at 10 mg/kg, iv measured upto 24 hrs by LC-MS/MS analysis; type: ADME, organism-based; design: route intravenous, dose 10 mg/kg, time <=24; conditions: in vivo
[37] = Oral bioavailability in rat at 50 mg/kg measured upto 24 hrs by LC-MS/MS analysis; type: ADME, organism-based; conditions: in vivo
[38] = Apparent volume of distribution in rat at 50 mg/kg, po measured upto 24 hrs by LC-MS/MS analysis; type: ADME, organism-based; conditions: in vivo
[39] = Apparent volume of distribution in rat at 10 mg/kg, iv measured upto 24 hrs by LC-MS/MS analysis; type: ADME, organism-based; conditions: in vivo, read-out: Vz
[40] = target: CYP1A2 (Homo sapiens, UniProt P05177); assay: Inhibition of CYP1A2 in human liver microsomes at 10 uM using phenacetin as substrate preincubated for 5 mins followed by NADPH addition and measured after 20 mins by LC-MS/MS analysis relative to control; type: ADME; conditions: probe phenacetin, time 25 min
Sequence of CYP1A2 (P05177 whole entry): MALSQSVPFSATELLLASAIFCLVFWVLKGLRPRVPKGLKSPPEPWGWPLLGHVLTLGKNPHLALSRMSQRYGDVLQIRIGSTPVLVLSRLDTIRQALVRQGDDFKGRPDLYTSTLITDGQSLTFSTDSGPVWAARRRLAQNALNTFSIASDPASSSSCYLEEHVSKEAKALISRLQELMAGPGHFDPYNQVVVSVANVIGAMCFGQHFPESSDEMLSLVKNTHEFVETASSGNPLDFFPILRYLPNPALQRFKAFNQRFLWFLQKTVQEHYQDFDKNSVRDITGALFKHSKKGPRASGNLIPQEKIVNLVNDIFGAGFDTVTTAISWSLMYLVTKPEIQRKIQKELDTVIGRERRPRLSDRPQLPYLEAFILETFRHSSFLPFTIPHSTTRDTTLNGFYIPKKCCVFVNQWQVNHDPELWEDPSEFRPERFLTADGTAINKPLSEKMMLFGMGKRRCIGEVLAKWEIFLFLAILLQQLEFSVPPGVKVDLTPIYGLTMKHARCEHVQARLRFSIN

[41] = test system: HCT-116; assay: Antitumor activity against human HCT-116 cells xenografted in nude mouse assessed as reduction in relative tumor volume by measuring T/C ratio at 40 mg/kg, ip administered every other day for 16 days and monitored every 3 days; type: functional; conditions: time 16 day
[42] = Toxicity in nude mouse xenografted with human HCT-116 cells assessed as change in body weight at 40 to 60 mg/kg, ip administered every other day for 16 days and monitored every 3 days; conditions: in vivo, 384 h

SMILES	IC50 [1] [µM]	Papp [2] [×10⁻⁶ cm/s]	IC50 [3] [µM]	Ratio IC50 [4]	IC50 [5] [µM]	IC50 [6] [µM]	IC50 [7] [µM]	IC50 [8] [µM]	IC50 [9] [µM]	IC50 [10] [µM]	IC50 [11] [µM]	IC50 [12] [µM]	IC50 [13] [µM]	IC50 [14] [µM]	IC50 [15] [µM]	IC50 [16] [µM]	T/C [17] [%]	IC50 [18] [µM]	IC50 [19] [µM]	Vz [38] [L/kg]	other results
CC(C)c1cc(C(=O)N2Cc3ccc(CN4CCN(C)CC4)cc3C2)c(O)cc1O [ONALESPIB]	0.013	74.3	0.022	1.7	0.038	0.066	0.071	0.024	0.032	0.067	0.129	0.05	0.018	0.038	0.011	11.6	21	0.07	0.02	–	–
COCCOc1ncc2c(n1)CCN(C(=O)c1cc(C(C)C)c(O)cc1O)C2	0.019	55.5	0.198	10.4	0.129	0.172	0.175	0.183	0.144	0.107	0.325	0.168	0.119	0.109	0.031	27.6	–	0.17	0.12	2072.05	logD [20]: 2.14; solubility [21]: 140 µg/mL (≈ 361 µM); inhibition [22]: Dose-dependent effect; inhibition [23]: Dose-dependent effect; inhibition [24]: Dose-dependent effect; inhibition [25]: Dose-dependent effect; Tmax [26]: 0.5 h; Cmax [27]: 40.7 ng/mL; t1/2 [28]: 3.23 h; CLint [29]: 4.88 mL/min/kg; Stabilty [30]: 81.5%; half-life [31]: 7.4 h; half-life [32]: 4.16 h; CL/F [33]: 3320 mL/min/kg; CLz/F [34]: 235.3 mL/min/kg; AUC(0-t) at 24 h [35]: 265 ng·h/mL; AUC(0-t) at 24 h [36]: 757 ng·h/mL; bioavailability [37]: 7%; Vd [39]: 86.6 L/kg
O=c1cc(-c2ccccc2)oc2c1ccc1ccccc12 [ALPHA-NAPHTHOFLAVONE]	–	–	–	–	–	–	–	–	–	–	–	–	–	–	–	–	–	–	–	–	inhibition at 20 min, 10 µM [40]: 76%
CCNc1nc(OCCOC)nc2c1CN(C(=O)c1cc(C(C)C)c(O)cc1O)CC2.Cl	–	–	–	–	–	–	–	–	–	–	–	–	–	–	–	–	23	–	–	1620.19	T/C [41]: 45%; Vd [39]: 29.6 L/kg; Activity [42]: Non-Toxic
